According to patent publication US20050038035A1, “Heterocyclic amide compounds as apolipoprotein b inhibitors” (priority 2001, published 2005):

Experiments:
[1] = system: ddY-mice; experiment: Test 3: Lipid Lowering Effect on ddY-Mice (olive oil load, plasma TG elevation); format: in vivo; settings: male ddY-mice fasted about 16 hours, oral, 0.32 mg/kg in olive oil (10 ml/kg), 2 hours; (TG increase in drug treated group/TG increase in control group)×100
Method: Male ddY-mice were housed in temperature- and humidity-controlled rooms and fed with laboratory chow. The animals were randomized according to their body weight and food was deprived about 16 hours before experiment. Baseline blood sample was collected from the retro orbital venous plexus then the animals were orally dosed with drugs in olive oil (10 ml/kg). For control group, 10 ml/kg of olive oil was loaded orally. Blood samples were drawn at 2 hours after drug administration for the measurement of triglyceride (TG) elevation. Plasma TG was determined by conventional enzyme method (The triglyceride E-test Wako).
Lipid lowering effects were shown in percent of the TG increase in drug treated group, relative to the TG increase in control group. Lipid lowering effect (%)=(TG increase in drug treated group/TG increase in control group)×100

[2] = system: Apo B secretion; experiment: Test 1: Measurement of Inhibition of Apo B Secretion (HepG2 cells, ELISA of medium); format: cell-based; settings: Homo sapiens, 10^−8 M test compound, 15-hour incubation, 0.1% DMSO treated cells as controls
Method: HepG2 cells were seeded in Eagles medium containing 10% fetal calf serum (FCS) at a density of 30000 cells/well in 96-well plates and allowed to grow for 3 days before treatment. At this time, the medium was replaced with fresh medium containing 0.1% dimethyl sulfoxide (DMSO) and the indicated concentrations of a test compound. After 15-hour incubation, the amount of Apo B and Apo AI accumulated in the media was determined by ELISA.
The assay was carried out at ambient temperature. A flat bottomed micro ELISA plate (manufactured by Nunc) was coated with an anti Apo B monoclonal antibody solution ([…] in 0.05% carbonate buffer, pH 9.6).by adding the antibody solution at a volume of 100 μl per well. After 1-hour incubation on a plate mixer, the unbound materials were removed by washing the well 3 times with a washing buffer (phosphate buffered saline, pH 7.2 containing 0.1% bovine serum albumin and 0.05% Tween-20). Then 20 μl of […] and 100 μl of a solution of peroxidase coupled anti Apo B antibody were added. After 1-hour incubation on a plate mixer, washing was performed 3 times to remove the unbound materials. A freshly prepared substrate solution (2.5 mg/ml ortho-phenylene diamine and 0.018% H2O2 in 0.11 M Na2HPO4-0.044 M sodium citrate buffer, pH 5.4) at a volume of 200 μl was then added to each well. After 20-minute incubation, the enzyme reaction was terminated by adding 50 μl of 0.5 M sulfuric acid. Absorbance of each well was determined at 490 nm using a microplate reader. Apo B concentration was calculated from a standard curve generated from purified Apo B standard that was run in parallel in the same plate. Inhibition of Apo B secretion by the test compound is calculated taking 0.1% DMSO treated cells as controls.
Measurement of Apo AI was performed similar to that of Apo B, except for diluting the sample 11-fold with a dilution buffer (phosphate buffered saline, pH 7.2 containing 0.5% bovine serum albumin and 0.05% Tween-20).
Apo B secretion inhibitors are identified as compounds that decrease Apo B secretion without affecting the secretion of Apo AI.

[3] = system: ddY-mice; experiment: Test 2: Lipids Lowering Effect on ddY-Mice (plasma cholesterol and triglyceride); format: in vivo; settings: male ddY-mice, oral, 3.2 mg/kg in 0.5% methylcellulose, relative to baseline; for Cholesterol (% of 0 hr) 2 hr: plasma total-cholesterol 2 hours after administration; for Triglyceride (% of 0 hr) 2 hr: plasma triglyceride 2 hours after administration
Method: Male ddY-mice were housed in temperature- and humidity-controlled rooms and fed with laboratory chow. The animals were randomized according to their body weight and deprived of food just before the experiment. A blood sample (baseline blood sample) was collected from the retro orbital venous plexus before administration of the test drug, and then the animals were orally dosed with the test drug in a vehicle (aqueous solution of 0.5% methylcellulose). Blood samples were drawn at 2 hours after drug administration for the measurement of cholesterol and triglyceride.
Plasma total-cholesterol and plasma triglyceride were determined by conventional enzyme methods using commercially available kits. The cholesterol CII-Test Wako (Wako Pure Chemical Industries, Ltd.) was used for the measurement of cholesterol, and the triglyceride E-test Wako (Wako Pure Chemical Industries, Ltd.) was used for the measurement of triglyceride.
Lipids lowering effects were shown in percent relative to the baseline level (level at 0 hr).

Row | Structure (SMILES) | Lipid lowering effect (%) [1] | inhibition at 0.01 µM [2] | Cholesterol (% of 0 hr) 2 hr [3] | Triglyceride (% of 0 hr) 2 hr [3]
1 | O=C(Nc1ccc(NCCc2ccccn2)cc1)C1=C(c2ccc(C(F)(F)F)cc2)CCCCC1 [Example 232, N-(4-{[2-(2-pyridinyl)ethyl]amino}phenyl)-2-[4-(trifluoromethyl)phenyl]-1-cycloheptene-1-carboxamide] | 29% | 93% |  | 
2 | Cc1ccc(-c2ccc(Cl)cc2)c(C(=O)Nc2ccc(NCCc3cccc(N)n3)cc2)c1 [Example 55, N-(4-{[2-(6-amino-2-pyridinyl)ethyl]amino}phenyl)-4′-chloro-4-methyl-1,1′-biphenyl-2-carboxamide] |  | 86% | 75 % of 0 hr | 16 % of 0 hr
3 | N#Cc1cccc(CN2CCN(c3ccc(NC(=O)C4=C(c5ccc(C(F)(F)F)cc5)CCCC4)cn3)CC2)c1 [Example 212, N-{6-[4-(3-cyanobenzyl)-1-piperazinyl]-3-pyridinyl}-2-[4-(trifluoromethyl)phenyl]-1-cyclohexene-1-carboxamide] | 55% | 84% |  | 
4 | Cc1ccc(C(=O)Nc2ccc(NCCc3ccccn3)cc2)c(-c2ccc(C(F)(F)F)cc2)c1 [Example 44, 5-methyl-N-(4-{[2-(2-pyridinyl)ethyl]amino}phenyl)-4′-(trifluoromethyl)-1,1′-biphenyl-2-carboxamide] |  | 83% | 80 % of 0 hr | 25 % of 0 hr
5 | Cc1ccc(-c2ccc(F)cc2)c(C(=O)Nc2ccc(NCCc3cccc(N)n3)cc2)c1 [Example 56, N-(4-{[2-(6-amino-2-pyridinyl)ethyl]amino}phenyl)-4′-fluoro-4-methyl-1,1′-biphenyl-2-carboxamide] |  | 93% | 81 % of 0 hr | 31 % of 0 hr
6 | Cc1ccc(-c2ccc(C)cc2C(=O)Nc2ccc(NCCc3cccc(N)n3)cc2)cc1 [Example 53, N-(4-{[2-(6-amino-2-pyridinyl)ethyl]amino}phenyl)-4,4′-dimethyl-1,1′-biphenyl-2-carboxamide] |  | 84% | 71 % of 0 hr | 17 % of 0 hr
7 | Cc1ccc(-c2ccc(Cl)cc2)c(C(=O)Nc2ccc(NCCc3ccccn3)cc2)c1 [Example 31, 4′-chloro-4-methyl-N-(4-{[2-(2-pyridinyl)ethyl]amino}phenyl)-1,1′-biphenyl-2-carboxamide] |  | 96% | 86 % of 0 hr | 36 % of 0 hr
8 | Cc1ccc(C(=O)Nc2ccc(NCCc3ccccn3)cc2)c(-c2ccc(F)cc2)c1 [Example 46, 4′-fluoro-5-methyl-N-(4-{[2-(2-pyridinyl)ethyl]amino}phenyl)-1,1′-biphenyl-2-carboxamide] |  | 94% | 79 % of 0 hr | 19 % of 0 hr
